Experiments:
[1] = test system: A375 cells (V600E activated B-RAF); test: In vitro tumor cell growth inhibition, MTT, 72 hours; format: cell-based; conditions: Homo sapiens, A-375, 72 hours incubation
Protocol: Briefly, growth inhibition of cells containing V600E activated B-RAF (A375, Colo205) versus cell lines with wild-type B-RAF (A431) were measured under anchorage-dependent conditions using MTT (3-(4,5-dimethylthiazol-2-yl)-2,5-diphenyltetrazolium bromide), following 72 hours incubation with either compound or vehicle, as previously described (Haass, N. K., et al., Clinical Cancer Res., 14: 230-239, 2008): Cell lines are obtained from the American Type Tissue Culture Collection (Maryland, USA) and cultured in media containing heat-inactivated 10% fetal bovine serum. Cell cultures were also maintained in 10 U/mL, penicillin, 100 μg/mL streptomycin and 2 mM glutamine. At least triplicate determinations for each individual test compound concentration were made and data plotted as mean±standard deviation relative to the control vehicle.

[2] = molecular target: V600E-mutated B-RAF (Homo sapiens, UniProt P15056, V600E); test: In vitro assay for inhibition of mutant B-RAF kinase (recombinant V600E-mutated B-RAF, MEK (K97R) substrate); format: biochemical; conditions: 10 nM recombinant V600E-mutated B-RAF
Protocol: (§1) The ability of compounds described herein to inhibit RAF kinase activity were determined from biochemical kinase inhibition assays using recombinant RAF proteins as known in the art.
Solutions of varying concentrations of test compounds or vehicle were added to 10 nM recombinant V600E-mutated B-RAF proteins incubated in the presence of different concentrations of ATP and […] (K97R) as substrate, as previously described (Wilhelm, S. M., et al., Cancer Res., 64: 7099-7109, 2004; Mason, C. S., et al.; EMBO J. 18: 2137-2.148, 1999; Marais, R., et al., J. Biol. Chem., 272: 4378-4383, 1997). At least triplicate determinations for each individual test compound concentration were made and data plotted as mean±standard deviation relative to the control vehicle.

[3] = molecular target: wild-type C-RAF (Homo sapiens, UniProt P04049); test: In vitro assay for inhibition of RAF kinases (recombinant wild-type C-RAF, MEK (K97R) substrate); format: biochemical; conditions: 10 nM recombinant wild-type C-RAF
Protocol: as §1
Solutions of varying concentrations of test compounds or vehicle were added to 10 nM recombinant wild-type A-RAF, wild-type B-RAF, or wild-type C-RAF proteins incubated in the presence of different concentrations of ATP and 1 μM MEK (K97R) as substrate, as previously described (Wilhelm, S. M., et al., Cancer Res., 64: 7099-7109, 2004; Mason, C S., et al., EMBO J. 18: 2137-2148, 1999; Marais, R., et al., J. Biol. Chem., 272: 4378-4383, 1997). At least triplicate determinations for each individual test compound concentration were made and data plotted as mean±standard deviation relative to the control vehicle.

Sequence of wild-type C-RAF (P04049 whole entry): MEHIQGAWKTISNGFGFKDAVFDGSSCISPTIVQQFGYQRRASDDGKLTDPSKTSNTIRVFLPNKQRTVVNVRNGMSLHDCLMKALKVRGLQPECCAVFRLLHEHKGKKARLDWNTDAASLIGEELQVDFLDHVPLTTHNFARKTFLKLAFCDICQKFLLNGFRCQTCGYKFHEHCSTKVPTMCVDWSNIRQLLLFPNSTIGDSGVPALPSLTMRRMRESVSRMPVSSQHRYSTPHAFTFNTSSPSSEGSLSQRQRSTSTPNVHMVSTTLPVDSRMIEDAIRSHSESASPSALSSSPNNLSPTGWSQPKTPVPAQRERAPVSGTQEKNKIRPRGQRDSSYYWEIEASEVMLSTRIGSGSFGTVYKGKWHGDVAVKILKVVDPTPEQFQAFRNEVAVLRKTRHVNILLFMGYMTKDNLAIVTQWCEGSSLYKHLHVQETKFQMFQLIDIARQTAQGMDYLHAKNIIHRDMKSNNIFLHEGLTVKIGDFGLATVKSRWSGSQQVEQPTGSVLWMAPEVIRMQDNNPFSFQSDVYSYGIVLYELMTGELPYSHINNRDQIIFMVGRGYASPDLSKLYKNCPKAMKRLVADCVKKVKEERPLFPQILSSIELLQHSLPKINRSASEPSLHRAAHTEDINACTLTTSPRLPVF
Sequence of V600E-mutated B-RAF (P15056 whole entry V600E): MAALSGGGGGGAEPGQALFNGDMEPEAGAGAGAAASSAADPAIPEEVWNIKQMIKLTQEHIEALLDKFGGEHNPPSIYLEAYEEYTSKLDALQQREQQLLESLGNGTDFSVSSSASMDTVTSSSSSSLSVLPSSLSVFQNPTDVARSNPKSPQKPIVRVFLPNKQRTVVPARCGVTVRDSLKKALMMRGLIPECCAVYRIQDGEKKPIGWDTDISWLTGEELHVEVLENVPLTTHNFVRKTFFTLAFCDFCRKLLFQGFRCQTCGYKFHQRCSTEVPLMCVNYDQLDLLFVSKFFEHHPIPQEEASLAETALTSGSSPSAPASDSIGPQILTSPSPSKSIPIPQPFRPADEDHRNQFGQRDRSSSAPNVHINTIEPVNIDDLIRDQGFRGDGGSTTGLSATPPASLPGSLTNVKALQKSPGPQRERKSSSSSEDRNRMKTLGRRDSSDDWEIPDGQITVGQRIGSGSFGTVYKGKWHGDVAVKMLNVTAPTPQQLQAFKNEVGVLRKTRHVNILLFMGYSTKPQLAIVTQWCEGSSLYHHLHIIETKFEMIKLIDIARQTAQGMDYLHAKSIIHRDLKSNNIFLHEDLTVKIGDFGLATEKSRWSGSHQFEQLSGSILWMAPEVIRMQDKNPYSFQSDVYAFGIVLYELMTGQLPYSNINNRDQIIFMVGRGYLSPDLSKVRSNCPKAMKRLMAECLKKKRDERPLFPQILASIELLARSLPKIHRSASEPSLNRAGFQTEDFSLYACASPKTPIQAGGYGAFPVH

| IC50 [1] | IC50 [2] | IC50 [3] | SMILES |
| --- | --- | --- | --- |
| > 10 µM | ≤ 0.1 µM | 1 to 10 µM | Cc1ccc(NC(=O)Nc2cccc(-c3sc(C)nc3-c3ccncc3)c2)cc1 [Example 1, 1-[3-(2-Methyl-4-pyridin-4-yl-thiazol-5-yl)-phenyl]-3-p-tolyl-urea] |
| 1 to 10 µM | ≤ 0.1 µM | 0.1 to 1 µM | Cc1ccc(NC(=O)Nc2cc(-c3sc(C)nc3-c3ccncc3)ccc2F)cc1 [Example 7, 1-(2-fluoro-5-(2-methyl-4-(pyridin-4-yl)thiazol-5-yl)phenyl)-3-p-tolylurea] |
| 1 to 10 µM | ≤ 0.1 µM | – | Cc1nc(-c2ccnc(N)c2)c(-c2cccc(NC(=O)Nc3ccc(Cl)cc3)c2)s1 [Example 21, 1-(3-(4-(2-aminopyridin-4-yl)-2-methylthiazol-5-yl)phenyl)-3-(4-chlorophenyl)urea] |
| 1 to 10 µM | ≤ 0.1 µM | – | O=C(Nc1ccc(Cl)cc1)Nc1cccc(-c2sc(N3CCOCC3)nc2-c2ccncc2)c1 [Example 33, 1-(4-chlorophenyl)-3-(3-(2-morpholino-4-(pyridin-4-yl)thiazol-5-yl)phenyl)urea] |
| 1 to 10 µM | ≤ 0.1 µM | – | O=C(Nc1ccc(Cl)cc1)Nc1cccc(-c2sc(NCCN3CCOCC3)nc2-c2ccncc2)c1 [Example 34, 1-(4-chlorophenyl)-3-(3-(2-(2-morpholinoethylamino)-4-(pyridin-4-yl)thiazol-5-yl)phenyl)urea] |
| 0.1 to 1 µM | ≤ 0.1 µM | – | O=C(Nc1ccc(C(F)(F)F)cc1)Nc1cc(-c2sc(NCCN3CCOCC3)nc2-c2ccncc2)ccc1F [Example 35, 1-(2-fluoro-5-(2-(2-morpholinoethylamino)-4-(pyridin-4-yl)thiazol-5-yl)phenyl)-3-(4-(trifluoromethyl)phenyl)urea] |
| 1 to 10 µM | ≤ 0.1 µM | – | O=C(Nc1ccc(C(F)(F)F)cc1)Nc1cccc(-c2sc(NCCN3CCOCC3)nc2-c2ccncc2)c1 [Example 37, 1-(3-(2-(2-morpholinoethylamino)-4-(pyridin-4-yl)thiazol-5-yl)phenyl)-3-(4-(trifluoromethyl)phenyl)urea] |
| > 10 µM | ≤ 0.1 µM | – | Cc1ccc(NC(=O)Cc2cccc(-c3sc(C)nc3-c3ccncc3)c2)cc1 [Example 47, 2-(3-(2-methyl-4-(pyridin-4-yl)thiazol-5-yl)phenyl)-N-p-tolylacetamide] |
| 1 to 10 µM | ≤ 0.1 µM | – | CCn1cc(-c2ccc(F)c(NC(=O)Nc3ccc(Cl)cc3)c2)c(-c2ccncc2)n1 [Example 48, 1-(4-chlorophenyl)-3-(5-(1-ethyl-3-(pyridin-4-yl)-1H-pyrazol-4-yl)-2-fluorophenyl)urea] |
| 0.1 to 1 µM | ≤ 0.1 µM | – | CCn1cc(-c2cccc(NC(=O)Nc3ccc(Cl)cc3)c2F)c(-c2ccncc2)n1 [Example 49, 1-(4-chlorophenyl)-3-(3-(1-ethyl-3-(pyridin-4-yl)-1H-pyrazol-4-yl)-2-fluorophenyl)urea] |
| 1 to 10 µM | ≤ 0.1 µM | – | CCn1cc(-c2cccc(NC(=O)Nc3ccc(S(C)(=O)=O)cc3)c2)c(-c2ccncc2)n1 [Example 51, 1-(3-(1-ethyl-3-(pyridin-4-yl)-1H-pyrazol-4-yl)phenyl)-3-(4-(methylsulfonyl)phenyl)urea] |
| ≤ 0.1 µM | ≤ 0.1 µM | 0.1 to 1 µM | CCn1cc(-c2cccc(NC(=O)Nc3ccc(C(F)(F)F)cc3)c2)c(-c2ccncc2)n1 [Example 52, 1-(3-(1-ethyl-3-(pyridin-4-yl)-1H-pyrazol-4-yl)phenyl)-3-(4-(trifluoromethyl)phenyl)urea] |
| 1 to 10 µM | ≤ 0.1 µM | – | CCn1cc(-c2cccc(NC(=O)Nc3ccc(S(=O)(=O)CC)cc3)c2)c(-c2ccncc2)n1 [Example 54, 1-(3-(1-ethyl-3-(pyridin-4-yl)-1H-pyrazol-4-yl)phenyl)-3-(4-(ethylsulfonyl)phenyl)urea] |
| > 10 µM | ≤ 0.1 µM | – | CCn1cc(-c2cccc(NC(=O)Nc3ccc(S(=O)(=O)NC)cc3)c2)c(-c2ccncc2)n1 [Example 56, 4-(3-(3-(1-ethyl-3-(pyridin-4-yl)-1H-pyrazol-4-yl)phenyl)ureido)-N-methylbenzenesulfonamide] |
| ≤ 0.1 µM | ≤ 0.1 µM | – | CCn1cc(-c2cccc(NC(=O)Nc3ccc(OC)cc3)c2)c(-c2ccncc2)n1 [Example 57, 1-(3-(1-ethyl-3-(pyridin-4-yl)-1H-pyrazol-4-yl)phenyl)-3-(4-methoxyphenyl)urea] |
| > 10 µM | ≤ 0.1 µM | – | CCn1cc(-c2cccc(NC(=O)Nc3ccc(S(=O)(=O)N4CCOCC4)cc3)c2)c(-c2ccncc2)n1 [Example 59, 1-(3-(1-ethyl-3-(pyridin-4-yl)-1H-pyrazol-4-yl)phenyl)-3-(4-(morpholinosulfonyl)phenyl)urea] |

More lines, now with the values behind:

| SMILES | IC50 [1] | IC50 [2] | IC50 [3] |
| --- | --- | --- | --- |
| Cc1ccc(NC(=O)Nc2cccc(-c3sc(C)nc3-c3ccnc(N)c3)c2)cc1 [Example 20, 1-(3-(4-(2-aminopyridin-4-yl)-2-methylthiazol-5-yl)phenyl)-3-p-tolylurea] | 1 to 10 µM | ≤ 0.1 µM | – |
| Cc1nc(-c2ccnc(N)c2)c(-c2ccc(F)c(NC(=O)Nc3ccc(Cl)cc3)c2)s1 [Example 22, 1-(5-(4-(2-aminopyridin-4-yl)-2-methylthiazol-5-yl)-2-fluorophenyl)-3-(4-chlorophenyl)urea] | 1 to 10 µM | ≤ 0.1 µM | – |
| Cc1nc(-c2ccnc(N)c2)c(-c2cccc(NC(=O)Nc3ccc(C(F)(F)F)cc3)c2F)s1 [Example 24, 1-(3-(4-(2-aminopyridin-4-yl)-2-methylthiazol-5-yl)-2-fluorophenyl)-3-(4-(trifluoromethyl)phenyl)urea] | 0.1 to 1 µM | 0.1 to 1 µM | – |
| Cc1nc(-c2ccnc(N)c2)c(-c2cc(NC(=O)Nc3ccc(C(F)(F)F)cc3)c(F)cc2F)s1 [Example 25, 1-(5-(4-(2-aminopyridin-4-yl)-2-methylthiazol-5-yl)-2,4-difluorophenyl)-3-(4-(trifluoromethyl)phenyl)urea] | 1 to 10 µM | ≤ 0.1 µM | – |
| Cc1nc(-c2ccnc(N)c2)c(-c2cccc(NC(=O)Nc3ccc(C(F)(F)F)cc3)c2)s1 [Example 26, 1-(3-(4-(2-aminopyridin-4-yl)-2-methylthiazol-5-yl)phenyl)-3-(4-(trifluoromethyl)phenyl)urea] | > 10 µM | ≤ 0.1 µM | – |
| Cc1nc(-c2ccncc2)c(-c2cccc(NS(=O)(=O)c3cc(F)ccc3F)c2)s1 [Example 41, 2,5-Difluoro-N-[3-(2-methyl-4-pyridin-4-yl-thiazol-5-yl)-phenyl]-benzenesulfonamide] | 1 to 10 µM | ≤ 0.1 µM | – |
| CCn1cc(-c2cccc(NC(=O)Nc3ccc(C(F)(F)F)cc3)c2F)c(-c2ccncc2)n1 [Example 50, 1-(3-(1-ethyl-3-(pyridin-4-yl)-1H-pyrazol-4-yl)-2-fluorophenyl)-3-(4-(trifluoromethyl)phenyl)urea] | 0.1 to 1 µM | ≤ 0.1 µM | 1 to 10 µM |
| CCn1cc(-c2cccc(N3CCN(c4ccc(C(F)(F)F)cc4)C3=O)c2)c(-c2ccncc2)n1 [Example 53, 1-(3-(1-ethyl-3-(pyridin-4-yl)-1H-pyrazol-4-yl)phenyl)-3-(4-(trifluoromethyl)phenyl)imidazolidin-2-one] | 1 to 10 µM | ≤ 0.1 µM | – |
| CCn1cc(-c2cccc(NC(=O)Nc3cccc(S(C)(=O)=O)c3)c2)c(-c2ccncc2)n1 [Example 55, 1-(3-(1-ethyl-3-(pyridin-4-yl)-1H-pyrazol-4-yl)phenyl)-3-(3-(methylsulfonyl)phenyl)urea] | > 10 µM | ≤ 0.1 µM | – |
| CCn1cc(-c2cccc(N(O)C(=O)Nc3ccc(C(F)(F)F)cc3)c2)c(-c2ccncc2)n1 [Example 63, 1-(3-(1-ethyl-3-(pyridin-4-yl)-1H-pyrazol-4-yl)phenyl)-1-hydroxy-3-(4-(trifluoromethyl)phenyl)urea] | 1 to 10 µM | ≤ 0.1 µM | – |

— patent US20140221374A1, “RAF KINASE INHIBITORS” (Ruga Corporation, priority 2011, published 2014)
